These results are taken from patent US11566057B2, “Long-acting co-agonists of the glucagon and GLP-1 receptors” (Merck Sharp & Dohme Corp., priority 2017, dated 2023).

The target of one test is T1, human GLP1R (Homo sapiens, UniProt P43220).
T1 construct: expressed in transfected cells; growth medium holds Blasticidin and Hygromycin
Put plainly: cAMP activity assay at the GLP-1 receptor (GLP1R). It counts as cell-based. An outline of the steps:
(§1)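 Peptides serially diluted from DMSO (10 points) and added to frozen-stock cells bearing human GLP1R (10,000 cells/well) or GCGR (30,000 cells/well), 1 h at RT, dark. EC50 by four-parameter logistic fit of HitHunter cAMPXS luminescence, read following overnight RT incubation.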

The target of another test is T2, human GCGR (Homo sapiens, UniProt P47871).
T2 construct: expressed in transfected cells; growth medium holds Blasticidin and Hygromycin
T2 sequence (P47871 26-477): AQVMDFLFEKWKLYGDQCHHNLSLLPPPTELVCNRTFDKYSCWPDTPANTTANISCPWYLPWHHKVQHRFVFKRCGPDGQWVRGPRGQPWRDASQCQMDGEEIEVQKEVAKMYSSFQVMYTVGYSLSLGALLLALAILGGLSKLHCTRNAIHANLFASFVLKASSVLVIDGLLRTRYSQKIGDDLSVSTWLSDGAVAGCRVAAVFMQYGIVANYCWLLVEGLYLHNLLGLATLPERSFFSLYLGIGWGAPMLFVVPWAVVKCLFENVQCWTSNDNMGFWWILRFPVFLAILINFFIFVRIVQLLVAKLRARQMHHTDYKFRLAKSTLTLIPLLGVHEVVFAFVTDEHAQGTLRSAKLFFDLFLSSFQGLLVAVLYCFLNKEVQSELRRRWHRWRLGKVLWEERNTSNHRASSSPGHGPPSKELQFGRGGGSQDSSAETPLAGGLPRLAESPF
Put plainly: cAMP activity assay at the Glucagon receptor (GCGR). It counts as cell-based. The settings on record: for hGCGR/hGLP1R (hTone): ratio of GCGR EC50 to GLP1R EC50. Summed up: as §1

The mark [1] stands for this setting: summary statement: EC50 at each of the glucagon and GLP-1 receptors, read-out: EC50 at the GLP-1 receptor.
[2] abbreviates: cells expressing human GCGR, cAMP production, buffer with or without 20% human serum (not stated which), read-out: GCGR EC50 human.
The mark [3] stands for this setting: summary statement: EC50 at each of the glucagon and GLP-1 receptors, read-out: EC50 at the glucagon receptor.
Setting [4] is: cells expressing human GLP1R, cAMP production, buffer with or without 20% human serum (not stated which), read-out: GLP1R EC50 human.

Read-outs that look alike come from different tables or passages of the source. Numbered stars: 1 amine (or outer) side, 2 acyl side, 3 side chain; on linkers, the order of the positions; unused ones are H or OH. Square brackets hold non-standard residues; d marks the D form. Side chains are listed from the residue outwards. Peptide text beside a SMILES is read from it. * marks the point of attachment. C18 diacid = O=C(O)CCCCCCCCCCCCCCCCC(=O)*; C16 diacid = O=C(O)CCCCCCCCCCCCCCC(=O)*; γGlu = O=C(O)[C@H](CCC(=O)[*:2])N[*:1]; Met(O2) = CS(=O)(=O)CC[C@H](N)C(=O)O; αMeD = C[C@](N)(CC(=O)O)C(=O)O; αMeS = C[C@](N)(CO)C(=O)O; AEEA = NCCOCCOCC(=O)O; Aib = CC(C)(N)C(=O)O A value given as a limit tells only on which side of the number the result lay.

T1 sequence (P43220 24-463): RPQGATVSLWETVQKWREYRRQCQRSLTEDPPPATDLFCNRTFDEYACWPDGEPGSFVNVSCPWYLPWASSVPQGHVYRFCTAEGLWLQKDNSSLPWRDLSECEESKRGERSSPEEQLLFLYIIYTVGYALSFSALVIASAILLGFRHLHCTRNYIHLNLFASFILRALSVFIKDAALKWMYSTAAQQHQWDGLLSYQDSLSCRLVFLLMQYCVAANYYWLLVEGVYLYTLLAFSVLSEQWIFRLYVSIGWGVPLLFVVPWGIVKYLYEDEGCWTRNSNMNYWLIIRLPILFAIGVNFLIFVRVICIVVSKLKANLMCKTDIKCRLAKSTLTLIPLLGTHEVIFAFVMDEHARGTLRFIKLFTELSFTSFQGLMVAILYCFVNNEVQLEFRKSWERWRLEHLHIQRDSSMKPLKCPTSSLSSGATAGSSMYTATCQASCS

Usually EC50 stands for the concentration giving half of the maximal effect. Regarding `CC(C)C[C@H](NC(=O)[C@H](Cc1ccc(O)cc1)NC(=O)[C@H](CCCCN)NC(=O)[C@H](CO)NC(=O)[C@H](Cc1ccc(O)cc1)NC(=O)[C@H](CC(=O)O)NC(=O)[C@H](CO)NC(=O)[C@@H](NC(=O)[C@H](Cc1ccccc1)NC(=O)[C@@H](NC(=O)CNC(=O)[C@H](CCC(N)=O)NC(=O)[C@](C)(CO)NC(=O)[C@@H](N)Cc1c[nH]cn1)[C@@H](C)O)[C@@H](C)O)C(=O)N[C@@H](CC(=O)O)C(=O)N[C@@H](C)C(=O)N[C@@H](CCCNC(=N)N)C(=O)N[C@@H](C)C(=O)N[C@@H](C)C(=O)N[C@@H](CCCCNC(=O)COCCOCCNC(=O)COCCOCCNC(=O)CC[C@H](NC(=O)CCCCCCCCCCCCCCC(=O)O)C(=O)O)C(=O)N[C@@H](CC(=O)O)C(=O)N[C@@H](Cc1ccccc1)C(=O)N[C@H](C(=O)N[C@@H](CCC(N)=O)C(=O)N[C@@H](Cc1c[nH]c2ccccc12)C(=O)N[C@@H](CC(C)C)C(=O)N[C@@H](CCS(C)(=O)=O)C(=O)N[C@@](C)(CC(=O)O)C(=O)N[C@H](C(N)=O)[C@@H](C)O)C(C)C` [TP614] (H-H[αMeS]QGTFTSDYSKYLDARAAK([AEEA-AEEA-γGlu-C16 diacid])DFVQWL[Met(O2)][αMeD]T-NH2; N-terminus assumed), the results for the concentration for a half-maximal effect (EC50) on human GLP1R (setting [1]), at human GCGR (setting [2]) and on human GCGR (setting [3]) were under 5 nM, 0.86 nM and under 5 nM, respectively. For the same compound, the “hGCGR/hGLP1R (hTone)” value at human GCGR worked out at 0.6.

`CC(C)C[C@H](NC(=O)[C@H](Cc1ccc(O)cc1)NC(=O)[C@H](CCCCN)NC(=O)[C@H](CO)NC(=O)[C@H](Cc1ccc(O)cc1)NC(=O)[C@H](CC(=O)O)NC(=O)[C@H](CO)NC(=O)[C@@H](NC(=O)[C@H](Cc1ccccc1)NC(=O)[C@@H](NC(=O)CNC(=O)[C@H](CCC(N)=O)NC(=O)[C@](C)(CO)NC(=O)[C@@H](N)Cc1c[nH]cn1)[C@@H](C)O)[C@@H](C)O)C(=O)N[C@@H](CC(=O)O)C(=O)N[C@@H](C)C(=O)N[C@@H](CCCNC(=N)N)C(=O)N[C@@H](C)C(=O)N[C@@H](C)C(=O)N[C@@H](CCC(N)=O)C(=O)N[C@@H](CCCCNC(=O)COCCOCCNC(=O)COCCOCCNC(=O)CC[C@H](NC(=O)CCCCCCCCCCCCCCC(=O)O)C(=O)O)C(=O)N[C@@H](Cc1ccccc1)C(=O)N[C@H](C(=O)N[C@@H](CCC(N)=O)C(=O)N[C@@H](Cc1c[nH]c2ccccc12)C(=O)N[C@@H](CC(C)C)C(=O)N[C@@H](CCS(C)(=O)=O)C(=O)N[C@@](C)(CC(=O)O)C(=O)N[C@H](C(N)=O)[C@@H](C)O)C(C)C` [TP615] (H-H[αMeS]QGTFTSDYSKYLDARAAQK([AEEA-AEEA-γGlu-C16 diacid])FVQWL[Met(O2)][αMeD]T-NH2): the EC50 on human GLP1R (setting [1]) and on human GCGR (setting [3]) was under 5 nM each time. The “hGCGR/hGLP1R (hTone)” value on human GCGR was 0.6.

For `CC(C)C[C@H](NC(=O)[C@H](Cc1ccc(O)cc1)NC(=O)[C@H](CCCCN)NC(=O)[C@H](CO)NC(=O)[C@H](Cc1ccc(O)cc1)NC(=O)[C@H](CC(=O)O)NC(=O)[C@H](CO)NC(=O)[C@@H](NC(=O)[C@H](Cc1ccccc1)NC(=O)[C@@H](NC(=O)CNC(=O)[C@H](CCC(N)=O)NC(=O)[C@](C)(CO)NC(=O)[C@@H](N)Cc1c[nH]cn1)[C@@H](C)O)[C@@H](C)O)C(=O)N[C@@H](CC(=O)O)C(=O)N[C@@H](C)C(=O)N[C@@H](CCCNC(=N)N)C(=O)N[C@@H](C)C(=O)N[C@@H](C)C(=O)N[C@@H](CCCCNC(=O)COCCOCCNC(=O)COCCOCCNC(=O)CC[C@H](NC(=O)CCCCCCCCCCCCCCCCC(=O)O)C(=O)O)C(=O)N[C@@H](CC(=O)O)C(=O)N[C@@H](Cc1ccccc1)C(=O)N[C@H](C(=O)N[C@@H](CCC(N)=O)C(=O)N[C@@H](Cc1c[nH]c2ccccc12)C(=O)N[C@@H](CC(C)C)C(=O)N[C@@H](CCS(C)(=O)=O)C(=O)N[C@@](C)(CC(=O)O)C(=O)N[C@H](C(N)=O)[C@@H](C)O)C(C)C` [TP616] (H-H[αMeS]QGTFTSDYSKYLDARAAK([AEEA-AEEA-γGlu-C18 diacid])DFVQWL[Met(O2)][αMeD]T-NH2; N-terminus assumed), the concentration giving a half-maximal response (EC50) on human GLP1R (setting [1]) and on human GCGR (setting [3]) was under 5 nM in each case. Moreover, at human GCGR, the “hGCGR/hGLP1R (hTone)” value is 0.7.

With `CC(C)C[C@H](NC(=O)[C@H](Cc1ccc(O)cc1)NC(=O)[C@H](CCCCN)NC(=O)[C@H](CO)NC(=O)[C@H](Cc1ccc(O)cc1)NC(=O)[C@H](CC(=O)O)NC(=O)[C@H](CO)NC(=O)[C@@H](NC(=O)[C@H](Cc1ccccc1)NC(=O)[C@@H](NC(=O)CNC(=O)[C@H](CCC(N)=O)NC(=O)[C@](C)(CO)NC(=O)[C@@H](N)Cc1c[nH]cn1)[C@@H](C)O)[C@@H](C)O)C(=O)N[C@@H](CC(=O)O)C(=O)N[C@@H](C)C(=O)N[C@@H](CCCNC(=N)N)C(=O)N[C@@H](C)C(=O)N[C@@H](C)C(=O)N[C@@H](CCC(N)=O)C(=O)N[C@@H](CCCCNC(=O)COCCOCCNC(=O)COCCOCCNC(=O)CC[C@H](NC(=O)CCCCCCCCCCCCCCCCC(=O)O)C(=O)O)C(=O)N[C@@H](Cc1ccccc1)C(=O)N[C@H](C(=O)N[C@@H](CCC(N)=O)C(=O)N[C@@H](Cc1c[nH]c2ccccc12)C(=O)N[C@@H](CC(C)C)C(=O)N[C@@H](CCS(C)(=O)=O)C(=O)N[C@@](C)(CC(=O)O)C(=O)N[C@H](C(N)=O)[C@@H](C)O)C(C)C` [TP617] (H-H[αMeS]QGTFTSDYSKYLDARAAQK([AEEA-AEEA-γGlu-C18 diacid])FVQWL[Met(O2)][αMeD]T-NH2), the EC50 is 0.76 nM on human GLP1R (setting [4]), under 5 nM on human GLP1R (setting [1]) and under 5 nM on human GCGR (setting [3]). Further, the “hGCGR/hGLP1R (hTone)” value on human GCGR was 0.8.

`CC(C)C[C@H](NC(=O)[C@H](Cc1ccc(O)cc1)NC(=O)[C@H](CCCCN)NC(=O)[C@H](CO)NC(=O)[C@H](Cc1ccc(O)cc1)NC(=O)[C@H](CC(=O)O)NC(=O)[C@H](CO)NC(=O)[C@@H](NC(=O)[C@H](Cc1ccccc1)NC(=O)[C@@H](NC(=O)CNC(=O)[C@H](CCC(N)=O)NC(=O)[C@](C)(CO)NC(=O)[C@@H](N)Cc1c[nH]cn1)[C@@H](C)O)[C@@H](C)O)C(=O)N[C@@H](CC(=O)O)C(=O)NC(C)(C)C(=O)N[C@@H](CCCNC(=N)N)C(=O)N[C@@H](C)C(=O)N[C@@H](C)C(=O)N[C@@H](CCCCNC(=O)COCCOCCNC(=O)COCCOCCNC(=O)CC[C@H](NC(=O)CCCCCCCCCCCCCCC(=O)O)C(=O)O)C(=O)N[C@@H](CC(=O)O)C(=O)N[C@@H](Cc1ccccc1)C(=O)N[C@H](C(=O)N[C@@H](CCC(N)=O)C(=O)N[C@@H](Cc1c[nH]c2ccccc12)C(=O)N[C@@H](CC(C)C)C(=O)N[C@@H](CCS(C)(=O)=O)C(=O)N[C@@](C)(CC(=O)O)C(=O)N[C@H](C(N)=O)[C@@H](C)O)C(C)C` [TP618] (H-H[αMeS]QGTFTSDYSKYLD[Aib]RAAK([AEEA-AEEA-γGlu-C16 diacid])DFVQWL[Met(O2)][αMeD]T-NH2): the concentration giving a half-maximal response (EC50) is under 5 nM on human GLP1R (setting [1]), 0.36 nM at human GCGR (setting [2]) and under 5 nM at human GCGR (setting [3]). For the same compound, the “hGCGR/hGLP1R (hTone)” value on human GCGR worked out at 0.1.

For the compound `CC(C)C[C@H](NC(=O)[C@H](Cc1ccc(O)cc1)NC(=O)[C@H](CCCCN)NC(=O)[C@H](CO)NC(=O)[C@H](Cc1ccc(O)cc1)NC(=O)[C@H](CC(=O)O)NC(=O)[C@H](CO)NC(=O)[C@@H](NC(=O)[C@H](Cc1ccccc1)NC(=O)[C@@H](NC(=O)CNC(=O)[C@H](CCC(N)=O)NC(=O)[C@](C)(CO)NC(=O)[C@@H](N)Cc1c[nH]cn1)[C@@H](C)O)[C@@H](C)O)C(=O)N[C@@H](CC(=O)O)C(=O)NC(C)(C)C(=O)N[C@@H](CCCNC(=N)N)C(=O)N[C@@H](C)C(=O)N[C@@H](C)C(=O)N[C@@H](CCC(N)=O)C(=O)N[C@@H](CCCCNC(=O)COCCOCCNC(=O)COCCOCCNC(=O)CC[C@H](NC(=O)CCCCCCCCCCCCCCC(=O)O)C(=O)O)C(=O)N[C@@H](Cc1ccccc1)C(=O)N[C@H](C(=O)N[C@@H](CCC(N)=O)C(=O)N[C@@H](Cc1c[nH]c2ccccc12)C(=O)N[C@@H](CC(C)C)C(=O)N[C@@H](CCS(C)(=O)=O)C(=O)N[C@@](C)(CC(=O)O)C(=O)N[C@H](C(N)=O)[C@@H](C)O)C(C)C` [TP619] (H-H[αMeS]QGTFTSDYSKYLD[Aib]RAAQK([AEEA-AEEA-γGlu-C16 diacid])FVQWL[Met(O2)][αMeD]T-NH2), the EC50 is 0.38 nM at human GLP1R (setting [4]), under 5 nM at human GLP1R (setting [1]) and under 5 nM on human GCGR (setting [3]). The “hGCGR/hGLP1R (hTone)” value on human GCGR came to 0.1.

Consider `CC(C)C[C@H](NC(=O)[C@H](Cc1ccc(O)cc1)NC(=O)[C@H](CCCCN)NC(=O)[C@H](CO)NC(=O)[C@H](Cc1ccc(O)cc1)NC(=O)[C@H](CC(=O)O)NC(=O)[C@H](CO)NC(=O)[C@@H](NC(=O)[C@H](Cc1ccccc1)NC(=O)[C@@H](NC(=O)CNC(=O)[C@H](CCC(N)=O)NC(=O)[C@](C)(CO)NC(=O)[C@@H](N)Cc1c[nH]cn1)[C@@H](C)O)[C@@H](C)O)C(=O)N[C@@H](CC(=O)O)C(=O)NC(C)(C)C(=O)N[C@@H](CCCNC(=N)N)C(=O)N[C@@H](C)C(=O)N[C@@H](C)C(=O)N[C@@H](CCCCNC(=O)COCCOCCNC(=O)COCCOCCNC(=O)CC[C@H](NC(=O)CCCCCCCCCCCCCCCCC(=O)O)C(=O)O)C(=O)N[C@@H](CC(=O)O)C(=O)N[C@@H](Cc1ccccc1)C(=O)N[C@H](C(=O)N[C@@H](CCC(N)=O)C(=O)N[C@@H](Cc1c[nH]c2ccccc12)C(=O)N[C@@H](CC(C)C)C(=O)N[C@@H](CCS(C)(=O)=O)C(=O)N[C@@](C)(CC(=O)O)C(=O)N[C@H](C(N)=O)[C@@H](C)O)C(C)C` [TP620] (H-H[αMeS]QGTFTSDYSKYLD[Aib]RAAK([AEEA-AEEA-γGlu-C18 diacid])DFVQWL[Met(O2)][αMeD]T-NH2; N-terminus assumed), for which the concentration giving a half-maximal response (EC50) on human GLP1R (setting [1]) and on human GCGR (setting [3]) was under 5 nM each time. Besides, the “hGCGR/hGLP1R (hTone)” value on human GCGR came to 0.1.
